From US11708360B2, “N-substituted-dioxocyclobutenylamino-3-hydroxy-picolinamides useful as CCR6 inhibitors” (Pfizer Inc., priority 2018, dated 2023)
Read-outs that look alike come from different tables or passages of the source.

Tests used:
CCR6 = target: T1, CCR6 (Homo sapiens, UniProt P51684); assay: CCR6+ T Cell Chemotaxis Assay; type: cell-based; settings: for T Cell Chemotaxis Selectivity: Table 13, T cell chemotaxis compared to neutrophil chemotaxis, NS = not selective for T cell chemotaxis compared to neutrophil chemotaxis
T1 construct: Human CD4+CCR6+CXCR3-T cells were isolated from leukopak from healthy donors; endogenous in cells
T1 sequence (P51684 1-374): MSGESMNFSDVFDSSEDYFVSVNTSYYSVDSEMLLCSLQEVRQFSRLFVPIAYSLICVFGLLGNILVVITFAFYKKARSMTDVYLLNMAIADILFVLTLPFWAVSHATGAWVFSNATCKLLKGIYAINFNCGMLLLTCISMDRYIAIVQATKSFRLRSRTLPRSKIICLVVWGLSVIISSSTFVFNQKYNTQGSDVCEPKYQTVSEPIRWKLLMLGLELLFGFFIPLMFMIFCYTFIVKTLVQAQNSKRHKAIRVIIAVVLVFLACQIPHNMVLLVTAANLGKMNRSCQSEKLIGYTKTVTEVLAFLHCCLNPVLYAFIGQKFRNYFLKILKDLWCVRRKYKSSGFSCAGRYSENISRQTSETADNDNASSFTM
From the text: Human CD4+CCR6+CXCR3-T cells were isolated from leukopak from healthy donors using EasySep™ Human Th17 Cell Enrichment Kit. […] Day 4 post activation, Dynabeads were removed from the culture. The activated T cells were maintained at 1-2×10^6 cells/mL for 15 days by feeding fresh growth media when needed.
For IC50 determination, the top and bottom of the chemotaxis chamber contained the same concentration of compound. DMSO was kept constant at 0.1% (v/v) in all wells. The final concentration of CCL20 (Peprotech 300-29A) in the bottom chamber is 0.5 nM. The fully assembled chemotaxis plate was placed in a cell culture incubator at 37° C., 5% CO2 for 1 h. After incubation, the top filter was removed, followed by a quick freeze of the bottom chamber at −80° C. for 1 h. The migrated cells in the bottom chamber were stained with CyQUANT dye (Life Technologies, C7026) for cell number determination.
IC50 values for compounds of the present invention (Table 11) were determined by the non-linear regression analysis of dose response curves.

CXCR2 = target: T2, CXCR2 (Homo sapiens, UniProt P25025); assay: Human Neutrophil Chemotaxis Assay; type: cell-based; design: Human neutrophils were purified from freshly drawn human whole blood; endogenous in cells; host or cells: primary human neutrophils from fresh whole blood
T2 sequence (P25025 1-360): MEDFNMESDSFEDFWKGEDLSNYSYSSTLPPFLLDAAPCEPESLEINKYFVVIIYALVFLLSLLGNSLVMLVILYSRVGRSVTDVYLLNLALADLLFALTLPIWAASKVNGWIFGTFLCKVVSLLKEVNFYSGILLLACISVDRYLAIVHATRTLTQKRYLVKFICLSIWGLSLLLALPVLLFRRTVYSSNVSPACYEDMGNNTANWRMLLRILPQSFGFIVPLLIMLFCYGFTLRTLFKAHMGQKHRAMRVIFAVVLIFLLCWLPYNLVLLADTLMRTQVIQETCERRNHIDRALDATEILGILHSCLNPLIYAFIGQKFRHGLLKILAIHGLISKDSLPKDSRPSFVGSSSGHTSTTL
Method: After 30 min, the labeled neutrophils were washed twice in chemotaxis buffer, resuspended as before and used immediately. For the assay, test compounds were tested in a dose-response format to determine IC50. Labeled neutrophils (50 μL) were pre-incubated with diluted test compound (50 μL) for 30 min in a 96-well plate (Greiner). Next, 100 μL of diluted compound was mixed with 100 μL of GROα (Peprotech #300-11, 2 nM) in the bottom portion of the chemotaxis chamber. The top portion (insert) of the chemotaxis system containing the FluoroBlok porous membrane was then assembled together. 50 μL of the pre-incubated neutrophils were added to the FluoroBlok insert (top portion) and chemotaxis measured by the neutrophils ability to migrate through the membrane towards the specific CXCR2 ligand, GROα.
IC50 values for compounds of the present invention (Table 12) were determined by the non-linear regression analysis of dose response curves.

[1] = Table 11, human CD4+CCR6+CXCR3- T cells, CCL20 0.5 nM in bottom chamber, 1 h at 37° C., read-out: IC50
[2] = Table 12, human neutrophils migrating towards the CXCR2 ligand GROα, read-out: IC50

SMILES	IC50 (CCR6; [1]) [nM]	T Cell Chemotaxis Selectivity (CCR6)	IC50 (CXCR2; [2]) [nM]	R = CH3, T Cell Chemotaxis Selectivity (CCR6; Table 14, R = CH3)	IC50 (CCR6; Table 14, R = CH3, read-out: R = CH3, IC50 (nM) CCR6 T cell, CCL20 Chemotaxis) [nM]	IC50 (CXCR2; Table 14, R = CH3, read-out: R = CH3, IC50 (nM) CXCR2 Neutrophil, GROα Chemotaxis) [nM]
Cc1cn(C)nc1[C@H](Nc1c(Nc2ccnc(C(=O)N3CCN(C)CC3)c2O)c(=O)c1=O)C1(C)CCCC1 [Example 7, (R)-3-(((1,4-Dimethyl-1H-pyrazol-3-yl)(1-methylcyclopentyl)methyl)amino)-4-((3-hydroxy-2-(4-methylpiperazine-1-carbonyl)pyridin-4-yl)amino)cyclobut-3-ene-1,2-dione]	29.8	72	2160	–	–	–
Cc1cn(C)nc1[C@H](Nc1c(Nc2ccnc(C(=O)N(C)C)c2O)c(=O)c1=O)C1(C)CC1 [Example 20, (R)-4-((2-(((1,4-Dimethyl-1H-pyrazol-3-yl)(1-methylcyclopropyl)methyl)amino)-3,4-dioxocyclobut-1-en-1-yl)amino)-3-hydroxy-N,N-dimethylpicolinamide]	271	–	167	–	–	–
Cc1cn(C)nc1[C@@H](Nc1c(Nc2ccnc(C(=O)N(C)C)c2O)c(=O)c1=O)C1(C)CCCC1 [Example 2, (S)-4-((2-(((1,4-Dimethyl-1H-pyrazol-3-yl)(1-methylcyclopentyl)methyl)amino)-3,4-dioxocyclobut-1-en-1-yl)amino)-3-hydroxy-N,N-dimethylpicolinamide]	186	–	7310	–	–	–
COc1cn(C)nc1[C@H](Nc1c(Nc2ccnc(C(=O)N(C)C(C)C)c2O)c(=O)c1=O)C1(C)CCCC1 [Example 11, (R)-3-Hydroxy-N-isopropyl-4-((2-(((4-methoxy-1-methyl-1H-pyrazol-3-yl)(1-methyl-cyclopentyl)methyl)amino)-3,4-dioxocyclobut-1-en-1-yl)amino)-N-methylpicolinamide]	1.9	110	210	–	–	–

Continued, values first:

IC50 (CCR6; [1]) [nM]	T Cell Chemotaxis Selectivity (CCR6)	IC50 (CXCR2; [2]) [nM]	R = CH3, T Cell Chemotaxis Selectivity (CCR6; Table 14, R = CH3)	IC50 (CCR6; Table 14, R = CH3, read-out: R = CH3, IC50 (nM) CCR6 T cell, CCL20 Chemotaxis) [nM]	IC50 (CXCR2; Table 14, R = CH3, read-out: R = CH3, IC50 (nM) CXCR2 Neutrophil, GROα Chemotaxis) [nM]	SMILES
4.4	16	69.9	–	–	–	COc1sc(C)nc1[C@H](Nc1c(Nc2ccnc(C(=O)N(C)C)c2O)c(=O)c1=O)C1(C)CCCC1 [Example 33, (R)-3-Hydroxy-4-((2-(((5-methoxy-2-methylthiazol-4-yl)(1-methylcyclopentyl)methyl)amino)-3,4-dioxocyclobut-1-en-1-yl)amino)-N,N-dimethylpicolinamide]
12	367	4410	–	–	–	CN(C)C(=O)c1nccc(Nc2c(N[C@@H](c3nn(C)cc3C3CC3)C3(C)CCCC3)c(=O)c2=O)c1O [Example 29, (R)-4-((2-(((4-Cyclopropyl-1-methyl-1H-pyrazol-3-yl)(1-methylcyclopentyl)methyl)amino)-3,4-dioxocyclobut-1-en-1-yl)amino)-3-hydroxy-N,N-dimethylpicolinamide]
2.7	123	332	123	2.7	332	Cc1nc([C@H](Nc2c(Nc3ccnc(C(=O)N(C)C)c3O)c(=O)c2=O)C2(C)CCCC2)c(C)s1 [Example 32, (R)-4-((2-(((2,5-Dimethylthiazol-4-yl)(1-methylcyclopentyl)-methyl)amino)-3,4-dioxocyclobut-1-en-1-yl)amino)-3-hydroxy-N,N-dimethylpicolinamide]
5.2	698	3630	–	–	–	CCc1cn(C)nc1[C@H](Nc1c(Nc2ccnc(C(=O)N(C)C)c2O)c(=O)c1=O)[C@]1(C)CC(F)(F)CO1 [Example 37, 4-((2-(((S)-((S)-4,4-Difluoro-2-methyltetrahydrofuran-2-yl) (4-ethyl-1-methyl-1H-pyrazol-3-yl)methyl)amino)-3,4-dioxocyclobut-1-en-1-yl)amino)-3-hydroxy-N,N-dimethylpicolinamide]
36.7	60	2190	–	–	–	Cc1sc(CO)nc1[C@H](Nc1c(Nc2ccnc(C(=O)N(C)C)c2O)c(=O)c1=O)C1(C)CCCC1 [Example 28, (R)-3-Hydroxy-4-((2-(((2-(hydroxymethyl)-5-methylthiazol-4-yl)(1-methylcyclopentyl)methyl)amino)-3,4-dioxocyclobut-1-en-1-yl)amino)-N,N-dimethylpicolinamide]
